# Data as given in US20140094482A1, “BENZAZOCINE-RING COMPOUND INHIBITION OF TAU HYPERPHOSPHORYLATION” (priority 2012, published 2014).
# “And” between values parts separate entries of the source, which are not always exact repeats. Equal values may be shown once. “Also recorded” adds a separate entry of the source. Read-outs that look alike come from different tables or passages of the source.
# Legend:
# [1] = molecular target: FLNA pentapeptide of SEQ ID NO: 1 (Bn-VAKGL) (Homo sapiens, UniProt P21333); experiment: FITC-NLX-based FLNA screening assay (inhibition of FITC-naloxone binding to Bn-VAKGL); conditions: for inhibition at 0.01 µM: read-out: Percent inhibition of FITC-NLX binding, 0.01 μM compound; for inhibition at 0.1 µM: read-out: Percent inhibition of FITC-NLX binding, 0.1 μM compound
# kappa-opioid receptor = kappa-opioid receptor (Homo sapiens, UniProt P41145); conditions: cited from earlier work
# kappa-opioid receptor, sequence (P41145 whole entry): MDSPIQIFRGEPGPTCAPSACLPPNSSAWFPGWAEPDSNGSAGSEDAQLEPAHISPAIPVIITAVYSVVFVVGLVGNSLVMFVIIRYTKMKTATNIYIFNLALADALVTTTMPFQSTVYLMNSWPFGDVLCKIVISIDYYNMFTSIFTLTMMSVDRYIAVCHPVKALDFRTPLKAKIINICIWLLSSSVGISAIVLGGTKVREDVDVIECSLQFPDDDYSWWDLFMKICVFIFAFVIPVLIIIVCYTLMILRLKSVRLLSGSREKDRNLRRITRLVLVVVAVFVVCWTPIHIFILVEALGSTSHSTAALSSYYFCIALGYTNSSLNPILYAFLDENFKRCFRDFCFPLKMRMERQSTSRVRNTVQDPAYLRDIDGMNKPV
# α7nAChR-FLNA complex = molecular target: T1, α7nAChR-FLNA complex (Rattus norvegicus, UniProt A0A8I5ZV49); experiment: Aβ42-induced α7nAChR-FLNA association in frontal cortical synaptosomes (anti-FLNA immunoprecipitation, Western blot); assay type: biochemical; conditions: compound simultaneous with 100 nM Aβ42; vs Aβ42 alone
# T1 construct: from tissue; host or cells: rat frontal cortex synaptosomes
# Method: FIG. 2, in two panels as FIG. 2A and FIG. 2B, illustrates high-affinity FLNA-binding compounds reduce α7nAChR-FLNA association as shown by Western blots. Frontal cortical synaptosomes from 2-month-old rats (n=4) were treated with 0.1 or 1 nM concentrations of potential FLNA-binding compounds [A0040, A0068, B0055, C0137M, C0138M and (+)-naloxone (+NLX)] either simultaneously (Sim) with or 10 minutes prior (10′ pr) to Aβ42 and were analyzed for their α7nAChR-FLNA complex contents. The α7nAChR-FLNA complexes in the solubilized synaptosomes were immunoprecipitated with immobilized anti-FLNA and the α7nAChR and FLNA levels in the anti-FLNA immunoprecipitates determined by Western blotting FIG. 2A and quantified by densitometry (FIG. 2B). n=3. Data are means±SEM. […] vs. Aβ42 alone. Data for 0.1 nM simultaneous admixture are shown in diagonal hatching; data from 1 nM simultaneous admixture are shown in cross-hatching; data from 0.1 nM 10 minutes prior to Aβ42 are shown in horizontal hatching; and data from 1 nM admixture 10 minutes prior Aβ42 are shown with vertical hatching. The letter designation “M” that accompanies many of the “C-series” compounds is omitted from FIG. 2, the remaining figures and most discussions of the figures and compounds hereinafter for ease in expression. […]
# ERK2 = experiment: Aβ42-induced ERK2 activation (pERK2) in synaptosomes; assay type: biochemical, rat; conditions: 0.1 and 1 nM, simultaneous treatment
# Method: FIG. 3, in two panels as FIG. 3A and FIG. 3B, illustrates that FLNA-binding compounds reduce Aβ-induced α7nAChR-mediated ERK2 signaling. In the same treated synaptosomes used in FIG. 2, levels of phosphorylated (activated) ERK2 (pERK2) were measured in immunoprecipitates of ERK2. Aβ42 strongly activated extracellular signal-regulated kinase 2 [ERK2; also known as mitogen-activated protein kinase 1 (MAPK1)], and all compounds studied reduced this activation with 10-minutes of pretreatment. […] Immunoprecipitates were determined by Western blotting (FIG. 3A) and quantified by densitometry (FIG. 3B). n=3. Data are means±SEM. […] vs. Aβ42 alone. Hatching is as in FIG. 2.
# (§1) Synaptosomes were exposed to 100 nM Aβ42 for 30 minutes, and with […] compounds added either simultaneously or 10 minutes earlier. Controls were a vehicle (no Aβ42) and an Aβ42 alone condition.
# To assess Aβ42 signaling via α7nAChR after compound administration, levels of phosphorylated ERK2 were measured in the same synaptosome preparations treated with Aβ42 and the above compounds using Western blots (FIG. 3A). Phosphorylation of ERK2 indicates its activation, which leads to tau hyperphosphorylation. Compared to the control condition, Aβ42 strongly activates ERK2. This activation is suppressed by all six compounds at 0.1 and 1 nM with 10 minute pretreatment, and also by Compound B0055 and (+)NLX with simultaneous treatment (FIG. 3B).
# delta-opioid receptor = delta-opioid receptor (Homo sapiens, UniProt P41143); conditions: cited from earlier work
# delta-opioid receptor, sequence (P41143 whole entry): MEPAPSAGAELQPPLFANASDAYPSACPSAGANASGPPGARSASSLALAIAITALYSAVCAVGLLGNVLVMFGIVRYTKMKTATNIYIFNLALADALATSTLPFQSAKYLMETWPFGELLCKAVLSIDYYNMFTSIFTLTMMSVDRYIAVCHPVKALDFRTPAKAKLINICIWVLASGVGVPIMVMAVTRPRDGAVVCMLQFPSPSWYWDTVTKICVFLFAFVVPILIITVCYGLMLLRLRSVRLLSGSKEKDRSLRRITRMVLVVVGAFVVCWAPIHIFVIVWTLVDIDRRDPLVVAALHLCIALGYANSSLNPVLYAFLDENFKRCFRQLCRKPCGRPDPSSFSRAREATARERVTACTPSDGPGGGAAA
# FLNA [2] = molecular target: T2, FLNA (Homo sapiens, UniProt P21333); experiment: Inhibition of [3H]NLX binding to membranes from FLNA-expressing A7 cells; conditions: for IC50: [3H]NLX binding, A7 cell membranes, Example 3, six studies, two-site fit
# T2 construct: rather than the full protein from a cell membrane preparation; host or cells: A7 cells (membranes)
# T2 sequence (P21333 whole entry): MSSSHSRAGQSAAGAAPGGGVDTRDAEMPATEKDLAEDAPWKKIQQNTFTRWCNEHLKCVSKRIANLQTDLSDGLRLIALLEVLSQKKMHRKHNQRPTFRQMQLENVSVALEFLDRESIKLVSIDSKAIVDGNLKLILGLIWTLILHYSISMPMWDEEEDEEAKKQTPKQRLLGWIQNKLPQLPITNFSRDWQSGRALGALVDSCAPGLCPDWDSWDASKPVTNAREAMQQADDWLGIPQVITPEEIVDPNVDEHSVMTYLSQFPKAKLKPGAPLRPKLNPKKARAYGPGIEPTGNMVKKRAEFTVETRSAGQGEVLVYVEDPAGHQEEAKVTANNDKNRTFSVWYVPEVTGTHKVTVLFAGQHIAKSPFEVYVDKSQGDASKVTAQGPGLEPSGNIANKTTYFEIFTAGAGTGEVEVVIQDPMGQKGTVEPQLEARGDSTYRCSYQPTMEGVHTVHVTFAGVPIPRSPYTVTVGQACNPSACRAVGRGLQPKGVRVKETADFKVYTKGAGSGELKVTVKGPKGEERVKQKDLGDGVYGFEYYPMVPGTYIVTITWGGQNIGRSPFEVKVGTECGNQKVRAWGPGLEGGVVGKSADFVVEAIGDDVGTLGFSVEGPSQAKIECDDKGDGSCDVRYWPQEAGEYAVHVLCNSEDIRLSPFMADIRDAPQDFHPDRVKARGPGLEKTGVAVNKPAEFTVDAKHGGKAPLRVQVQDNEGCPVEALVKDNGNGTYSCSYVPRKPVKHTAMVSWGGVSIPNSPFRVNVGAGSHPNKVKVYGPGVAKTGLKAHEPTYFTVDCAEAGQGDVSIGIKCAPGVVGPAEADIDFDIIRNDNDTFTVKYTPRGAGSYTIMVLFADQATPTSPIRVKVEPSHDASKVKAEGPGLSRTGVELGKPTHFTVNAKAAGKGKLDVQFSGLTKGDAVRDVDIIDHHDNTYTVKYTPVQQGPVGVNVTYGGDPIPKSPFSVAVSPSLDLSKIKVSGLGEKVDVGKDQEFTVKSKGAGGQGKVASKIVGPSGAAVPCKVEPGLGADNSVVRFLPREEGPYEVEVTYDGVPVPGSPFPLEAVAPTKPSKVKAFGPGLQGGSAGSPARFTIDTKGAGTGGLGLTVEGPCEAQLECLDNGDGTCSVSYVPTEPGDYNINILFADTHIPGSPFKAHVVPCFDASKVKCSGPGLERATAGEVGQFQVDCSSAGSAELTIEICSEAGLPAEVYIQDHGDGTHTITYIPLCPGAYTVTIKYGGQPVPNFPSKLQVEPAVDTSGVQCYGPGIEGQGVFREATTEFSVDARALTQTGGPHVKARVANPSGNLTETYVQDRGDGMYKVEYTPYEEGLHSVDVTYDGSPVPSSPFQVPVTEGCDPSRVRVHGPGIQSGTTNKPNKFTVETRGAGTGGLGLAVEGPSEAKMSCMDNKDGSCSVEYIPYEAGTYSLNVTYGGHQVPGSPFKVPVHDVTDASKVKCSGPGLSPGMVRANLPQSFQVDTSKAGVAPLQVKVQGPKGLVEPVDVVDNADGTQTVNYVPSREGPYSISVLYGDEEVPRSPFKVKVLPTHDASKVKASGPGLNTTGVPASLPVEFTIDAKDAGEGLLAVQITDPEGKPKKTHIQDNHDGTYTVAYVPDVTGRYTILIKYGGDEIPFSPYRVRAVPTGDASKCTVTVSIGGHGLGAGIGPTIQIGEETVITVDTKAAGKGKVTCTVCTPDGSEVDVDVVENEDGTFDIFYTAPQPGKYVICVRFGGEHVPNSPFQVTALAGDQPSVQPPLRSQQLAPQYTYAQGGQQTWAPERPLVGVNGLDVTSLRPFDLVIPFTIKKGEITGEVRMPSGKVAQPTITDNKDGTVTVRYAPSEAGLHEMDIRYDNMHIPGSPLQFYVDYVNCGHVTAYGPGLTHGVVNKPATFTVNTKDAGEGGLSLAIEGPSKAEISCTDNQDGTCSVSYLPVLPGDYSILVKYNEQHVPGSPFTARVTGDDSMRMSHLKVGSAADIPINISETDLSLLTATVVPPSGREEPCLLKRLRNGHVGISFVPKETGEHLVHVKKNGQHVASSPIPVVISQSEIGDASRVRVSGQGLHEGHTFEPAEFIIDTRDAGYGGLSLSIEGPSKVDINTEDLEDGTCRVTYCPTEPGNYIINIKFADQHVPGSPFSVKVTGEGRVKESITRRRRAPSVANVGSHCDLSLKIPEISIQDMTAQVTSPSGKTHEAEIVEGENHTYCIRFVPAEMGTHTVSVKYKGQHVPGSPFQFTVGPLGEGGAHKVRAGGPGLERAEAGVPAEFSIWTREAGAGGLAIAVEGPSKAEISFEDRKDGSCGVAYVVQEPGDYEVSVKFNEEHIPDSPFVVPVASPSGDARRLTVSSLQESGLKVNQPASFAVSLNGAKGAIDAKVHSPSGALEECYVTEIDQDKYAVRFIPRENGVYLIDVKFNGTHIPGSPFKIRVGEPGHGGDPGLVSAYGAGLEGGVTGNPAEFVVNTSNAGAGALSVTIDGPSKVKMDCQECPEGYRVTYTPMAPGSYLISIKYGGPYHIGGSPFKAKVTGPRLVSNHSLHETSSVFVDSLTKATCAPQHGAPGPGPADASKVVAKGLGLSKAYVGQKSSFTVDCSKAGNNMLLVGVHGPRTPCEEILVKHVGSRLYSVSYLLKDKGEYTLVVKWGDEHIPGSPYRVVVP
# FLNA [3] = molecular target: T2, FLNA; experiment: Inhibition of FITC-NLX binding to FLNA in membranes of A7 cells; conditions: for IC50: FITC-NLX in place of [3H]NLX
# From the text: 3(2):e1554 (2008), FIG. 3. FIG. 1B is a similar plot obtained from the use of FITC-labeled NLX (FITC-NLX) in place of the radio-labeled material.
# FLNA [4] = molecular target: T2, FLNA; conditions: [3H]NLX binding, A7 cell membranes, Wang et al. 2008/2009, cited from earlier work
# mu opioid receptor (MOR) = mu opioid receptor (MOR) (Homo sapiens, UniProt P35372); conditions: cited from earlier work
# mu opioid receptor (MOR), sequence (P35372 whole entry, species assumed): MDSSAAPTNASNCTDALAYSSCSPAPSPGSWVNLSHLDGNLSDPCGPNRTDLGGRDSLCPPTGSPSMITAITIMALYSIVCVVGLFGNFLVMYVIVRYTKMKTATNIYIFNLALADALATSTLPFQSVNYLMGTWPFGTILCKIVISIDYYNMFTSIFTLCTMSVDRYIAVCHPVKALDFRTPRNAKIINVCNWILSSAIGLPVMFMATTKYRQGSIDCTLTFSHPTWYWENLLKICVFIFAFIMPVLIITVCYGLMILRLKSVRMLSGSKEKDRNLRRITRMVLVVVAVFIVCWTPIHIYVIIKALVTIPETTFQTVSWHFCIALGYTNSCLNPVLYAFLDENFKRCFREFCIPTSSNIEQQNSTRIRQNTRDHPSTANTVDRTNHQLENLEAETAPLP
# tau protein = experiment: Aβ42-induced tau phosphorylation at S202, T231 and T181 in synaptosomes; assay type: biochemical, rat
# Method: FIG. 4, in four panels as FIG. 4A, FIG. 4B, FIG. 4C and FIG. 4D, illustrate that FLNA-binding compounds reduce tau phosphorylation at all three hyperphosphorylation sites. […] The three phosphoepitopes of tau were detected in immunoprecipitates using specific antibodies in Western blots. […] Immunoprecipitates were determined by Western blotting (FIG. 4A) and quantified by densitometry (FIG. 4B, FIG. 4C and FIG. 4D). Data are means±SEM. […] vs. Aβ42 alone. Hatching is as in FIG. 2.
# as §1
# Next assessed was whether the FLNA-binding compounds also decrease hyperphosphorylation of tau, a downstream effect of Aβ42 binding to α7nAChR and ERK2 activation. The three primary phosphorylation sites on tau protein were examined for their phosphorylation levels compared to total tau protein content using Western blots (FIG. 4A). Tau, phosphorylated at these three sites, is a constituent of NFTs.
# [5] = read-out: Percent Inhibition, 1 μM compound (n = 5)
# [6] = read-out: Percent inhibition of FITC-NLX binding, 1 μM compound, 10 nM FITC-NLX
# [7] = read-out: inhibition of binding of FITC-labeled NLX, 1 μM compound, 10 nM FITC-NLX, n=5, FIG. 11
# [8] = read-out: inhibition of binding of FITC-labeled NLX
compound,measurement,setting,value
Oc1ccc2c3c1O[C@H]1[C@H](O)CC[C@@]4(O)[C@@H](C2)N(CC2CC2)CC[C@]314 [6-β-Naltrexol],Percent Inhibition,[1]; 1 µM,50.5%
same,Percent Inhibition,[1]; 10 µM,64.8%
Oc1ccc2c(c1)[C@@]13CCCC[C@@]1(O)[C@@H](C2)N(CC1CCC1)CC3 [Butorphanol],RECEPTOR KAPPA: antagonism/agonism and relative potency,kappa-opioid receptor,+++
COc1c2c(cc3c1C(CC(=O)Cc1ccccc1F)[N+](C)(C)CC3)OCO2 (stereo not drawn) [Compound B0055],α7nAChR-FLNA association,α7nAChR-FLNA complex,markedly reduced
same,Aβ42-induced ERK2 activation (pERK2),ERK2,suppressed; also recorded: reduced the activation at both concentrations
CN1CC[C@]23CCCC[C@H]2[C@H]1Cc1ccc(O)cc13 [Levorphanol],inhibition at 1 µM,[1]; read-out: Percent Inhibition,46.8%
same,inhibition at 10 µM,[1]; read-out: Percent Inhibition,69.4%
Oc1ccc2c3c1O[C@H]1[C@@H](O)CC[C@@]4(O)[C@@H](C2)N(CC2CCC2)CC[C@]314 [Nalbuphine],binding to the FLNA pentapeptide of SEQ ID NO: 1 (in words),[1],bind well
same,inhibition at 1 µM,[1]; read-out: Percent Inhibition,65.4%
same,inhibition at 10 µM,[1]; read-out: Percent Inhibition,76.2%
C=C1CC[C@@]2(O)[C@H]3Cc4ccc(O)c5c4[C@@]2(CCN3CC2CC2)[C@H]1O5 [Nalmefene],inhibition at 1 µM,[1]; read-out: Percent Inhibition,44.5%
same,inhibition at 10 µM,[1]; read-out: Percent Inhibition,66.9%
C=CCN1CC[C@]23c4c5ccc(O)c4O[C@H]2[C@@H](O)C=C[C@H]3[C@H]1C5 [Nalorphine],RECEPTOR KAPPA: antagonism/agonism and relative potency,kappa-opioid receptor,+
same,binding to the FLNA pentapeptide of SEQ ID NO: 1 (in words),[1],bind well
same,inhibition at 1 µM,[1]; read-out: Percent Inhibition,58.7%
same,inhibition at 10 µM,[1]; read-out: Percent Inhibition,60.2%
C=CCN1CC[C@]23c4c5ccc(O)c4O[C@H]2/C(=N/NC(=O)c2ccccc2)CC[C@@]3(O)[C@H]1C5 [Naloxone Benzoylhydrazone],RECEPTOR KAPPA: antagonism/agonism and relative potency,kappa-opioid receptor,−
same,RECEPTOR DELTA: antagonism/agonism and relative potency,delta-opioid receptor,−
C=CCN1CC[C@]23c4c5ccc(O)c4O[C@H]2C(=O)CC[C@@]3(O)[C@H]1C5 [Naloxone],binding to the FLNA pentapeptide of SEQ ID NO: 1 (in words),[1],bind well
same,Percent inhibition of FITC-NLX binding,"[1]; 0.01 μM compound, 10 nM FITC-NLX, listed as (−)NLX",41.9% and 34.3% and 41.4% and 42.50%
same,Percent inhibition of FITC-NLX binding,"[1]; 0.1 μM compound, 10 nM FITC-NLX, listed as (−)NLX",48.6% and 38.5% and 47.2% and 54.20%
same,Percent inhibition of FITC-NLX binding,"[1]; 1 μM compound, 10 nM FITC-NLX, listed as (−)NLX",51.5% and 45.8% and 50.2% and 56.20%
same,inhibition at 1 µM,[1]; [5],71.6%
same,inhibition at 0.01 µM,[1]; 10 nM FITC-NLX,43%
same,inhibition at 0.1 µM,[1]; 10 nM FITC-NLX,50.3%
same,inhibition at 1 µM,[1]; [6],53.9%
same,inhibition at 1 µM,[1]; [7],~75%
O=C1CC[C@@]2(O)[C@H]3Cc4ccc(O)c5c4[C@@]2(CCN3CC2CC2)[C@H]1O5 [Naltrexone],IC50,FLNA [2]; IC50-L (low),0.834 nM
same,IC50,FLNA [2]; read-out: IC50-H (high),0.00394 nM
same,affinity difference between the high- and low-affinity binding sites,FLNA [2]; [3H]NLX label,about 200 fold
same,binding to the FLNA pentapeptide of SEQ ID NO: 1 (in words),[1],bind well
same,Percent inhibition of FITC-NLX binding,"[1]; 0.01 μM compound, 10 nM FITC-NLX, listed as NTX",37.9% and 34.8% and 38.5%
same,Percent inhibition of FITC-NLX binding,"[1]; 0.1 μM compound, 10 nM FITC-NLX, listed as NTX",46.5% and 45.2% and 43.3%
same,Percent inhibition of FITC-NLX binding,"[1]; 1 μM compound, 10 nM FITC-NLX, listed as NTX",55.4% and 51.6% and 48.0%
same,inhibition at 1 µM,[1]; [5],76.4%
same,inhibition at 0.01 µM,[1]; 10 nM FITC-NLX,40.2%
same,inhibition at 0.1 µM,[1]; 10 nM FITC-NLX,47.4%
same,inhibition at 1 µM,[1]; [6],49.1%
same,inhibition at 1 µM,[1]; [7],~75%
same,IC50,FLNA [3]; read-out: IC50-H (high),0.00163 nM
same,IC50,FLNA [3]; read-out: IC50-L (low),18.8 nM
same,affinity difference between the high- and low-affinity binding sites,FLNA [3]; FITC-NLX label,~12.000 fold
same,IC50,FLNA [4]; read-out: IC50-H (high affinity site),0.00394 nM
same,IC50,FLNA [4]; read-out: IC50-L (lower affinity site),0.834 nM
Oc1ccc2c3c1O[C@H]1c4[nH]c5ccccc5c4C[C@@]4(O)[C@@H](C2)N(CC2CC2)CC[C@]314 [Naltrindole],RECEPTOR MU: antagonism/agonism and relative potency,mu opioid receptor (MOR),−
same,RECEPTOR KAPPA: antagonism/agonism and relative potency,kappa-opioid receptor,−
same,inhibition at 1 µM,[1]; read-out: Percent Inhibition,41%
same,inhibition at 10 µM,[1]; read-out: Percent Inhibition,65%
CN1CC[C@]23c4c5ccc(O)c4O[C@H]2[C@@H](O)C=C[C@H]3[C@H]1C5 [morphine],binding to the FLNA pentapeptide of SEQ ID NO: 1 (in words),[1],do not bind well
same,inhibition at 10 µM,[1]; [8],25 to 50%
Oc1ccc2c3c1O[C@H]1c4[nH]c5c(c4C[C@@]4(O)C(C2)N(CC2CC2)CC[C@]314)C[C@@]1(O)[C@H]2Cc3ccc(O)c4c3[C@@]1(CCN2CC1CC1)[C@H]5O4 [nor-Binaltrophimine],RECEPTOR DELTA: antagonism/agonism and relative potency,delta-opioid receptor,−
COc1ccc2c3c1O[C@H]1C(=O)CC[C@@]4(O)[C@@H](C2)N(C)CC[C@]314 [oxycodone],binding to the FLNA pentapeptide of SEQ ID NO: 1 (in words),[1],do not bind well
same,inhibition at 10 µM,[1]; [8],25 to 50%
COC(=O)/C=C/C(=O)N[C@@H]1CC[C@@]2(O)[C@H]3Cc4ccc(O)c5c4[C@@]2(CCN3CC2CC2)[C@H]1O5 [β-Funaltrexamine],Percent Inhibition,[1]; 1 µM,49.8%
same,Percent Inhibition,[1]; 10 µM,69.4%
(+)-naloxone [(+)NLX],Aβ42-induced hyperphosphorylation of tau at all three sites,"tau protein; FIG. 4D, timing not specified",particularly decreased
same,"Aβ42-induced tau phosphorylation at S202, T231 and T181","tau protein; simultaneous administration, both concentrations",reduced tau phosphorylation
same,α7nAChR-FLNA association,α7nAChR-FLNA complex,markedly reduced
same,Aβ42-induced ERK2 activation (pERK2),ERK2,suppressed
same,Aβ42-induced ERK2 activation (pERK2),ERK2; listed as (+)-naloxone,reduced the activation at both concentrations
